Experimental data from patent publication US20040086536A1, “Therapeutic agents and treatment kits for hypertrophic pyloric stenosis” (priority 2002, published 2004).
Where a name gives a salt, the structure may show the parent alone.

Tests used:
[1] = tested on: hypertrophic pyloric stenosis; test: Treatment of infantile patients with hypertrophic pyloric stenosis (disappearance of vomiting, hospitalization); details: atropine sulfate 0.1 mg/kg/day iv.
Method: In the present treating examples, a solution for intravenous injection of atropine sulfate was used as the anticholinergic agent and a nitroglycerin patch was used as the NO donor.
After confirming that the pH and electrolytes in the blood restore in the normal ranges in individual infantile patients, a daily dosage of atropine sulfate (0.1 mg/kg/day) was divided by the number of milk feeding and the divided dosage of atropine sulfate was administered intravenously 10 minutes before each milk feeding over 3 minutes or longer. Except in the cases where abnormally strong side effects were produced, the dosage amounts for subsequent intravenous injections were not changed principally. […] The minimum dosage amount is 0.04 mg/kg/day.
In parallel with the atropine sulfate intravenous injection, a nitroglycerin transdermal patch (Millisrol Tape (registered trademark)): 5 mg/patch: Nippon Kayaku Co., Ltd.; or Minitro Tape (registered trademark): 5 mg/patch: Nisshin-Kyorin Pharmaceutical Co., Ltd.) was used. […]
To prevent the occurrence of aspiration pneumonia induced by vomiting and the induction of contraction of gastric smooth muscles and pyloric sphincters, isotonic drinking solution was fed orally as the infantile patient wanted until the vomiting subsided. […] The body weight and the daily amount of milk intake were measured every day. […]

[2] = tested on: hypertrophic pyloric stenosis; details: cited from earlier work

## CN1[C@@H]2CC[C@H]1C[C@@H](OC(=O)C(CO)c1ccccc1)C2 (some centres unmarked) [atropine sulfate (iv.), atropine sulfate]
[1]
  Duration of vomiting (onset of action) after the initiation of the treatment: 5 ± 2 days
  duration of hospitalization: 9 ± 2 days
[2]; atropine sulfate therapy, contraction of the pyloric muscle often reappears afterward
  time for which the spasm disappears after the administration: 20 to 30 min
[2]; intravenous injection, needs long term hospitalization
  effectiveness of treatment: high
[2]; oral administration
  effectiveness rate of treatment: less than 50%
